Measured values from the supplement of paper PMC10307832.

Key:
Assay in all cases: relative viability (nuclei count vs DMSO), 5 days (fraction); higher = more cells survive
DM3189 + OSI-027 = compound: C1CN(CCN1)C2=CC=C(C=C2)C3=CN4C(=C(C=N4)C5=CC=NC6=CC=CC=C56)N=C3 [DM3189] + COc1cccc2cc(-c3nc([C@H]4CC[C@H](C(=O)O)CC4)n4ncnc(N)c34)[nH]c12 [OSI-027] (partner 0.5 µM)
Outline: (§1)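 Cells from lung cancer lines were seeded into 1536-well plates and, one day later, dosed by pin tool. Treatments were either a single drug or a fixed dose of an anchor drug with five library-drug doses (not always all listed) in √10 steps. After 5 days, nuclei were stained in a one-step fixation (final 0.05% Triton X-100, 1% formaldehyde, 1 ug/ml Hoechst) and counted on 4× images, and relative viability is the treated-to-vehicle nuclei ratio, as the median of duplicate plates.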

DM3189 + Tozasertib = compound: C1CN(CCN1)C2=CC=C(C=C2)C3=CN4C(=C(C=N4)C5=CC=NC6=CC=CC=C56)N=C3 [DM3189] + Cc1cc(Nc2cc(N3CCN(C)CC3)nc(Sc3ccc(NC(=O)C4CC4)cc3)n2)n[nH]1 [Tozasertib] (partner 0.1 µM)
Outline: as §1

DM3189 + Bortezomib = compound: C1CN(CCN1)C2=CC=C(C=C2)C3=CN4C(=C(C=N4)C5=CC=NC6=CC=CC=C56)N=C3 [DM3189] + CC(C)C[C@H](NC(=O)[C@H](Cc1ccccc1)NC(=O)c1cnccn1)B(O)O [Bortezomib] (partner 0.002 µM)
Outline: as §1

DM3189 + Pemetrexed = compound: C1CN(CCN1)C2=CC=C(C=C2)C3=CN4C(=C(C=N4)C5=CC=NC6=CC=CC=C56)N=C3 [DM3189] + Nc1nc2[nH]cc(CCc3ccc(C(=O)N[C@@H](CCC(=O)O)C(=O)O)cc3)c2c(=O)[nH]1 [Pemetrexed] (partner 0.2 µM)
Outline: as §1

DM3189 + Palbociclib = compound: C1CN(CCN1)C2=CC=C(C=C2)C3=CN4C(=C(C=N4)C5=CC=NC6=CC=CC=C56)N=C3 [DM3189] + CC(=O)c1c(C)c2cnc(Nc3ccc(N4CCNCC4)cn3)nc2n(C2CCCC2)c1=O [Palbociclib] (partner 0.5 µM)
Outline: as §1

Row | Cell Line | relative viability (DM3189 + OSI-027; first compound 0.08 µM) | relative viability (DM3189 + OSI-027; first compound 0.253 µM) | relative viability (DM3189 + OSI-027; first compound 0.8 µM) | relative viability (DM3189 + OSI-027; first compound 2.53 µM) | relative viability (DM3189 + Tozasertib; first compound 0.08 µM) | relative viability (DM3189 + Tozasertib; first compound 0.253 µM) | relative viability (DM3189 + Tozasertib; first compound 0.8 µM) | relative viability (DM3189 + Tozasertib; first compound 2.53 µM) | relative viability (DM3189 + Bortezomib; first compound 0.08 µM) | relative viability (DM3189 + Bortezomib; first compound 0.253 µM) | relative viability (DM3189 + Bortezomib; first compound 0.8 µM) | relative viability (DM3189 + Bortezomib; first compound 2.53 µM) | relative viability (DM3189 + Pemetrexed; first compound 0.08 µM) | relative viability (DM3189 + Pemetrexed; first compound 0.253 µM) | relative viability (DM3189 + Pemetrexed; first compound 0.8 µM) | relative viability (DM3189 + Pemetrexed; first compound 2.53 µM) | relative viability (DM3189 + Palbociclib; first compound 0.08 µM) | relative viability (DM3189 + Palbociclib; first compound 0.253 µM) | relative viability (DM3189 + Palbociclib; first compound 0.8 µM) | relative viability (DM3189 + Palbociclib; first compound 2.53 µM)
1 | LXF-289 | 1.01 | 0.747 | 0.746 | 0.891 | 0.208 | 0.196 | 0.166 | 0.236 | 1 | 0.929 | 0.988 | 1.11 | 0.932 | 0.986 | 0.897 | 0.917 | 0.597 | 0.606 | 0.565 | 0.562
2 | NCI-H838 | 0.427 | 0.376 | 0.312 | 0.357 | 0.256 | 0.249 | 0.255 | 0.281 | 1 | 0.64 | 0.633 | 0.92 | 0.238 | 0.255 | 0.239 | 0.22 | 0.265 | 0.224 | 0.174 | 0.205
3 | NCI-H1437 | 0.895 | 0.862 | 0.906 | 1.08 | 0.396 | 0.369 | 0.379 | 0.397 | 0.601 | 0.442 | 0.543 | 0.628 | 0.34 | 0.333 | 0.326 | 0.293 | 0.359 | 0.364 | 0.339 | 0.388
4 | SK-LU-1 | 0.373 | 0.283 | 0.299 | 0.284 | 0.241 | 0.204 | 0.248 | 0.219 | 1.24 | 0.882 | 0.738 | 0.7 | 1 | 0.863 | 0.857 | 0.549 | 0.339 | 0.268 | 0.329 | 0.31
5 | HCC-44 | 0.631 | 0.482 | 0.373 | 0.596 | 0.999 | 0.912 | 0.727 | 0.954 | 0.975 | 0.905 | 0.781 | 0.995 | 0.606 | 0.602 | 0.581 | 0.622 | 0.898 | 0.976 | 0.798 | 0.951
6 | EPLC-272H | 0.356 | 0.261 | 0.238 | 0.254 | 0.418 | 0.252 | 0.235 | 0.253 | 1.07 | 0.86 | 0.868 | 0.831 | 0.275 | 0.318 | 0.338 | 0.276 | 0.321 | 0.318 | 0.343 | 0.341
7 | NCI-H647 | 0.724 | 0.579 | 0.585 | 0.528 | 0.259 | 0.212 | 0.408 | 0.235 | 1.08 | 0.871 | 0.667 | 0.35 | 0.185 | 0.178 | 0.173 | 0.146 | 0.4 | 0.378 | 0.273 | 0.217
8 | NCI-H441 | 0.747 | 0.602 | 0.451 | 0.486 | 0.943 | 0.57 | 0.681 | 0.738 | 0.656 | 0.604 | 0.447 | 0.645 | 0.3 | 0.243 | 0.295 | 0.287 | 0.25 | 0.222 | 0.197 | 0.169
